According to PubChem BioAssay (NCI):
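Protocol summary: plate cells (96-well), add compound at 5 concentrations, incubate 48 h, interpolate endpoints linearly. The concentration for 50% growth inhibition is given as GI50. TGI denotes the concentration required for complete inhibition of growth.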

Tested on: NCI-H522 lung
Assay: inhibition of tumour cell growth, NCI panel, 48 h

Row | Structure (SMILES) | TGI [µM]
1 | O=[N+]([O-])C(=C(Cl)Cl)C(Cl)=C(Cl)Cl | < 0.0106
2 | CC1=C(C(=O)OCCO[N+](=O)[O-])C(c2cccc([N+](=O)[O-])c2)C(C(=O)OC(C)C)=C(C)N1 (stereo not drawn) | 34.9
3 | CS(=O)(=O)OCCCCOS(=O)(=O)CF | > 100

Tested on: HCT-15 colon
Assay: inhibition of tumour cell growth, NCI panel, 48 h

Row | Structure (SMILES) | TGI [µM] | GI50 [µM]
4 | NC(N)=Nc1ccc(-c2ccc(N=C(N)N)cc2)cc1 | > 100 | –
5 | O=C1c2cccnc2-c2nc(-c3ccccc3[N+](=O)[O-])cc3c2c1nc1ccccc13 | 32.9 | 12
6 | CC(C)(C)c1cc(C(=O)/C=C/c2c(Cl)cccc2Cl)cc(C(C)(C)C)c1O | 27.9 | –
7 | O=[N+]([O-])C(=C(Cl)Cl)C(Cl)=C(Cl)Cl | 0.908 | –
8 | CC1=C(C(=O)OCCO[N+](=O)[O-])C(c2cccc([N+](=O)[O-])c2)C(C(=O)OC(C)C)=C(C)N1 (stereo not drawn) | 27.4 | –
9 | CS(=O)(=O)OCCCCOS(=O)(=O)CF | > 100 | –

Tested on: SN12C renal
Assay: inhibition of tumour cell growth, NCI panel, 48 h

Row | Structure (SMILES) | TGI [µM] | GI50 [µM]
10 | NC(N)=Nc1ccc(-c2ccc(N=C(N)N)cc2)cc1 | > 100 | –
11 | O=C1c2cccnc2-c2nc(-c3ccccc3[N+](=O)[O-])cc3c2c1nc1ccccc13 | 37.9 | 15.6
12 | CC(C)(C)c1cc(C(=O)/C=C/c2c(Cl)cccc2Cl)cc(C(C)(C)C)c1O | > 75.2 | –
13 | O=[N+]([O-])C(=C(Cl)Cl)C(Cl)=C(Cl)Cl | 2.22 | –
14 | CC1=C(C(=O)OCCO[N+](=O)[O-])C(c2cccc([N+](=O)[O-])c2)C(C(=O)OC(C)C)=C(C)N1 (stereo not drawn) | 36.4 | –
15 | CS(=O)(=O)OCCCCOS(=O)(=O)CF | > 100 | –

Tested on: 786-0 renal
Assay: inhibition of tumour cell growth, NCI panel, 48 h

Row | Structure (SMILES) | TGI [µM] | GI50 [µM]
16 | NC(N)=Nc1ccc(-c2ccc(N=C(N)N)cc2)cc1 | > 100 | –
17 | O=C1c2cccnc2-c2nc(-c3ccccc3[N+](=O)[O-])cc3c2c1nc1ccccc13 | 35.1 | 14.7
18 | CC(C)(C)c1cc(C(=O)/C=C/c2c(Cl)cccc2Cl)cc(C(C)(C)C)c1O | 29.7 | –
19 | O=[N+]([O-])C(=C(Cl)Cl)C(Cl)=C(Cl)Cl | 0.648 | –
20 | CC1=C(C(=O)OCCO[N+](=O)[O-])C(c2cccc([N+](=O)[O-])c2)C(C(=O)OC(C)C)=C(C)N1 (stereo not drawn) | 35.7 | –
21 | CS(=O)(=O)OCCCCOS(=O)(=O)CF | > 100 | –

Tested on: SF-295 CNS
Assay: inhibition of tumour cell growth, NCI panel, 48 h

Row | Structure (SMILES) | TGI [µM] | GI50 [µM]
22 | NC(N)=Nc1ccc(-c2ccc(N=C(N)N)cc2)cc1 | > 100 | –
23 | O=C1c2cccnc2-c2nc(-c3ccccc3[N+](=O)[O-])cc3c2c1nc1ccccc13 | > 85.9 | 25.9
24 | CC(C)(C)c1cc(C(=O)/C=C/c2c(Cl)cccc2Cl)cc(C(C)(C)C)c1O | 42.2 | –
25 | O=[N+]([O-])C(=C(Cl)Cl)C(Cl)=C(Cl)Cl | 9.54 | –
26 | CC1=C(C(=O)OCCO[N+](=O)[O-])C(c2cccc([N+](=O)[O-])c2)C(C(=O)OC(C)C)=C(C)N1 (stereo not drawn) | 56.6 | –
27 | CS(=O)(=O)OCCCCOS(=O)(=O)CF | > 100 | –

Tested on: M14 melanoma
Assay: inhibition of tumour cell growth, NCI panel, 48 h

Row | Structure (SMILES) | TGI [µM] | GI50 [µM]
28 | NC(N)=Nc1ccc(-c2ccc(N=C(N)N)cc2)cc1 | > 100 | –
29 | O=C1c2cccnc2-c2nc(-c3ccccc3[N+](=O)[O-])cc3c2c1nc1ccccc13 | 10.7 | 2.99
30 | CC(C)(C)c1cc(C(=O)/C=C/c2c(Cl)cccc2Cl)cc(C(C)(C)C)c1O | 54.7 | –
31 | O=[N+]([O-])C(=C(Cl)Cl)C(Cl)=C(Cl)Cl | 0.0871 | –
32 | CC1=C(C(=O)OCCO[N+](=O)[O-])C(c2cccc([N+](=O)[O-])c2)C(C(=O)OC(C)C)=C(C)N1 (stereo not drawn) | 29.5 | –
33 | CS(=O)(=O)OCCCCOS(=O)(=O)CF | > 100 | –

Tested on: COLO 205 colon
Assay: inhibition of tumour cell growth, NCI panel, 48 h

Row | Structure (SMILES) | TGI [µM] | GI50 [µM]
34 | NC(N)=Nc1ccc(-c2ccc(N=C(N)N)cc2)cc1 | 47 | –
35 | O=C1c2cccnc2-c2nc(-c3ccccc3[N+](=O)[O-])cc3c2c1nc1ccccc13 | > 62.4 | 24.4
36 | CC(C)(C)c1cc(C(=O)/C=C/c2c(Cl)cccc2Cl)cc(C(C)(C)C)c1O | 32 | –
37 | O=[N+]([O-])C(=C(Cl)Cl)C(Cl)=C(Cl)Cl | 0.254 | –
38 | CC1=C(C(=O)OCCO[N+](=O)[O-])C(c2cccc([N+](=O)[O-])c2)C(C(=O)OC(C)C)=C(C)N1 (stereo not drawn) | 24.4 | –
39 | CS(=O)(=O)OCCCCOS(=O)(=O)CF | > 100 | –

Tested on: MOLT-4 leukemia
Assay: inhibition of tumour cell growth, NCI panel, 48 h

Row | Structure (SMILES) | TGI [µM]
40 | NC(N)=Nc1ccc(-c2ccc(N=C(N)N)cc2)cc1 | > 100
41 | O=C1c2cccnc2-c2nc(-c3ccccc3[N+](=O)[O-])cc3c2c1nc1ccccc13 | > 100
42 | CC(C)(C)c1cc(C(=O)/C=C/c2c(Cl)cccc2Cl)cc(C(C)(C)C)c1O | > 56.5
43 | O=[N+]([O-])C(=C(Cl)Cl)C(Cl)=C(Cl)Cl | 0.175
44 | CC1=C(C(=O)OCCO[N+](=O)[O-])C(c2cccc([N+](=O)[O-])c2)C(C(=O)OC(C)C)=C(C)N1 (stereo not drawn) | > 100
45 | CS(=O)(=O)OCCCCOS(=O)(=O)CF | > 100

Tested on: MDA-N
Assay: inhibition of tumour cell growth, NCI panel, 48 h

Row | Structure (SMILES) | TGI [µM] | GI50 [µM]
46 | NC(N)=Nc1ccc(-c2ccc(N=C(N)N)cc2)cc1 | > 100 | –
47 | O=C1c2cccnc2-c2nc(-c3ccccc3[N+](=O)[O-])cc3c2c1nc1ccccc13 | 26.1 | 12.2
48 | CC(C)(C)c1cc(C(=O)/C=C/c2c(Cl)cccc2Cl)cc(C(C)(C)C)c1O | > 68.3 | –
49 | O=[N+]([O-])C(=C(Cl)Cl)C(Cl)=C(Cl)Cl | 1.24 | –
50 | CC1=C(C(=O)OCCO[N+](=O)[O-])C(c2cccc([N+](=O)[O-])c2)C(C(=O)OC(C)C)=C(C)N1 (stereo not drawn) | 28.1 | –
51 | CS(=O)(=O)OCCCCOS(=O)(=O)CF | > 100 | –

Tested on: IGROV1 ovarian
Assay: inhibition of tumour cell growth, NCI panel, 48 h

Row | Structure (SMILES) | TGI [µM] | GI50 [µM]
52 | NC(N)=Nc1ccc(-c2ccc(N=C(N)N)cc2)cc1 | > 89.6 | –
53 | O=C1c2cccnc2-c2nc(-c3ccccc3[N+](=O)[O-])cc3c2c1nc1ccccc13 | 83.3 | 12.3
54 | CC(C)(C)c1cc(C(=O)/C=C/c2c(Cl)cccc2Cl)cc(C(C)(C)C)c1O | > 100 | –
55 | O=[N+]([O-])C(=C(Cl)Cl)C(Cl)=C(Cl)Cl | 1.15 | –
56 | CC1=C(C(=O)OCCO[N+](=O)[O-])C(c2cccc([N+](=O)[O-])c2)C(C(=O)OC(C)C)=C(C)N1 (stereo not drawn) | 33.9 | –
57 | CS(=O)(=O)OCCCCOS(=O)(=O)CF | > 100 | –

Tested on: PC-3 prostate
Assay: inhibition of tumour cell growth, NCI panel, 48 h

Row | Structure (SMILES) | TGI [µM] | GI50 [µM]
58 | NC(N)=Nc1ccc(-c2ccc(N=C(N)N)cc2)cc1 | 75.9 | –
59 | O=C1c2cccnc2-c2nc(-c3ccccc3[N+](=O)[O-])cc3c2c1nc1ccccc13 | 69.1 | 19.5
60 | CC(C)(C)c1cc(C(=O)/C=C/c2c(Cl)cccc2Cl)cc(C(C)(C)C)c1O | > 63.9 | –
61 | O=[N+]([O-])C(=C(Cl)Cl)C(Cl)=C(Cl)Cl | 4.66 | –
62 | CC1=C(C(=O)OCCO[N+](=O)[O-])C(c2cccc([N+](=O)[O-])c2)C(C(=O)OC(C)C)=C(C)N1 (stereo not drawn) | 15.6 | –
63 | CS(=O)(=O)OCCCCOS(=O)(=O)CF | > 100 | –

Tested on: KM12 colon
Assay: inhibition of tumour cell growth, NCI panel, 48 h

Row | Structure (SMILES) | TGI [µM] | GI50 [µM]
64 | NC(N)=Nc1ccc(-c2ccc(N=C(N)N)cc2)cc1 | > 100 | –
65 | O=C1c2cccnc2-c2nc(-c3ccccc3[N+](=O)[O-])cc3c2c1nc1ccccc13 | > 55 | 14.1
66 | CC(C)(C)c1cc(C(=O)/C=C/c2c(Cl)cccc2Cl)cc(C(C)(C)C)c1O | 36.8 | –
67 | O=[N+]([O-])C(=C(Cl)Cl)C(Cl)=C(Cl)Cl | 5.51 | –
68 | CC1=C(C(=O)OCCO[N+](=O)[O-])C(c2cccc([N+](=O)[O-])c2)C(C(=O)OC(C)C)=C(C)N1 (stereo not drawn) | 23.1 | –
69 | CS(=O)(=O)OCCCCOS(=O)(=O)CF | > 100 | –

Tested on: SW-620 colon
Assay: inhibition of tumour cell growth, NCI panel, 48 h

Row | Structure (SMILES) | TGI [µM] | GI50 [µM]
70 | NC(N)=Nc1ccc(-c2ccc(N=C(N)N)cc2)cc1 | > 100 | –
71 | O=C1c2cccnc2-c2nc(-c3ccccc3[N+](=O)[O-])cc3c2c1nc1ccccc13 | 18.9 | 3.27
72 | CC(C)(C)c1cc(C(=O)/C=C/c2c(Cl)cccc2Cl)cc(C(C)(C)C)c1O | 36.2 | –
73 | O=[N+]([O-])C(=C(Cl)Cl)C(Cl)=C(Cl)Cl | 0.157 | –
74 | CC1=C(C(=O)OCCO[N+](=O)[O-])C(c2cccc([N+](=O)[O-])c2)C(C(=O)OC(C)C)=C(C)N1 (stereo not drawn) | 51.1 | –
75 | CS(=O)(=O)OCCCCOS(=O)(=O)CF | > 100 | –

Tested on: HCC-2998 colon
Assay: inhibition of tumour cell growth, NCI panel, 48 h

Row | Structure (SMILES) | TGI [µM] | GI50 [µM]
76 | NC(N)=Nc1ccc(-c2ccc(N=C(N)N)cc2)cc1 | > 100 | –
77 | O=C1c2cccnc2-c2nc(-c3ccccc3[N+](=O)[O-])cc3c2c1nc1ccccc13 | 45 | 19.7
78 | CC(C)(C)c1cc(C(=O)/C=C/c2c(Cl)cccc2Cl)cc(C(C)(C)C)c1O | 28.1 | –
79 | O=[N+]([O-])C(=C(Cl)Cl)C(Cl)=C(Cl)Cl | 5.43 | –
80 | CC1=C(C(=O)OCCO[N+](=O)[O-])C(c2cccc([N+](=O)[O-])c2)C(C(=O)OC(C)C)=C(C)N1 (stereo not drawn) | 29.6 | –
81 | CS(=O)(=O)OCCCCOS(=O)(=O)CF | > 100 | –

Tested on: ACHN renal
Assay: inhibition of tumour cell growth, NCI panel, 48 h

Row | Structure (SMILES) | TGI [µM] | GI50 [µM]
82 | NC(N)=Nc1ccc(-c2ccc(N=C(N)N)cc2)cc1 | > 100 | –
83 | O=C1c2cccnc2-c2nc(-c3ccccc3[N+](=O)[O-])cc3c2c1nc1ccccc13 | > 92.2 | 9.03
84 | CC(C)(C)c1cc(C(=O)/C=C/c2c(Cl)cccc2Cl)cc(C(C)(C)C)c1O | 28.2 | –
85 | O=[N+]([O-])C(=C(Cl)Cl)C(Cl)=C(Cl)Cl | 2.05 | –
86 | CC1=C(C(=O)OCCO[N+](=O)[O-])C(c2cccc([N+](=O)[O-])c2)C(C(=O)OC(C)C)=C(C)N1 (stereo not drawn) | > 100 | –
87 | CS(=O)(=O)OCCCCOS(=O)(=O)CF | > 100 | –

Tested on: MALME-3M melanoma
Assay: inhibition of tumour cell growth, NCI panel, 48 h

Row | Structure (SMILES) | TGI [µM] | GI50 [µM]
88 | NC(N)=Nc1ccc(-c2ccc(N=C(N)N)cc2)cc1 | 62.6 | –
89 | O=C1c2cccnc2-c2nc(-c3ccccc3[N+](=O)[O-])cc3c2c1nc1ccccc13 | 14.8 | 3.11
